PubChem BioAssay AID2060508 (Molecular Pharmacology Branch, DTP, NCI, 2025)

Test system: 454973-116-R2-J3-PDC spheroids, viability, % test/control
Assay: Anticancer human tumor 454973-116-R2-J3-PDC patient-derived pancreatic carcinoma cell line growth inhibition [GQUAD]
Details: spheroids with HUVEC and MSC; for IC50: curve of first compound; for viability, T/C: stronger effect = lower value; active = viability on the fitted dose curve at most 10% of control; inactive = the rest
In short: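 Viability of tumor cells grown as complex spheroids with endothelial and stromal cells, exposed to drug combinations. Top concentration at or near clinical Cmax (else 10 microM), diluted in half-log increments.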

[1] = second compound 0.0316 µM, first compound 0.0316 µM
[2] = second compound 0.0316 µM, first compound 0.1 µM
[3] = second compound 0.0316 µM, first compound 0.316 µM
[4] = second compound 0.0316 µM, first compound 1 µM
[5] = second compound 0.0316 µM, first compound 3.16 µM
[6] = second compound 0.0316 µM, first compound 10 µM
[7] = second compound 0.1 µM, first compound 0.0316 µM
[8] = second compound 0.1 µM, first compound 0.1 µM
[9] = second compound 0.1 µM, first compound 0.316 µM
[10] = second compound 0.1 µM, first compound 1 µM
[11] = second compound 0.1 µM, first compound 3.16 µM
[12] = second compound 0.1 µM, first compound 10 µM
[13] = second compound 0.316 µM, first compound 0.0316 µM
[14] = second compound 0.316 µM, first compound 0.1 µM
[15] = second compound 0.316 µM, first compound 0.316 µM
[16] = second compound 0.316 µM, first compound 1 µM
[17] = second compound 0.316 µM, first compound 3.16 µM
[18] = second compound 0.316 µM, first compound 10 µM
[19] = second compound 1 µM, first compound 0.0316 µM
[20] = second compound 1 µM, first compound 0.1 µM
[21] = second compound 1 µM, first compound 0.316 µM
[22] = second compound 1 µM, first compound 1 µM
[23] = second compound 1 µM, first compound 3.16 µM
[24] = second compound 1 µM, first compound 10 µM
[25] = second compound 3.16 µM, first compound 0.0316 µM
[26] = second compound 3.16 µM, first compound 0.1 µM
[27] = second compound 3.16 µM, first compound 0.316 µM
[28] = second compound 3.16 µM, first compound 1 µM
[29] = second compound 3.16 µM, first compound 3.16 µM
[30] = second compound 3.16 µM, first compound 10 µM
[31] = second compound 10 µM, first compound 0.0316 µM
[32] = second compound 10 µM, first compound 0.1 µM
[33] = second compound 10 µM, first compound 0.316 µM
[34] = second compound 10 µM, first compound 1 µM
[35] = second compound 10 µM, first compound 3.16 µM
[36] = second compound 10 µM, first compound 10 µM
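Also: spheroids exposed to compounds for seven days.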
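For viability, T/C in this document: 100% = DMSO vehicle control viability.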

CC(=O)O[C@H]1C(=O)[C@@]2(C)[C@H]([C@H](OC(=O)c3ccccc3)[C@]3(O)C[C@H](OC(=O)[C@H](O)[C@@H](NC(=O)c4ccccc4)c4ccccc4)C(C)=C1C3(C)C)[C@]1(OC(C)=O)CO[C@@H]1C[C@@H]2O + CN(C)c1ccc(Nc2c3ccc(NC(=O)CCN4CCCC4)cc3nc3cc(NC(=O)CCN4CCCC4)ccc23)cc1
inactive: viability, T/C [1] 16.5% | viability, T/C [7] 16% | viability, T/C [8] 11.7% | viability, T/C [13] 14% | viability, T/C [19] 16% | viability, T/C [25] 15.5% | viability, T/C [31] 21.6% | viability, T/C [32] 12.1%
active: viability, T/C [2] 8.43% | viability, T/C [3] 9.5% | viability, T/C [4] 7.36% | viability, T/C [5] 8.24% | viability, T/C [6] 10.1% | viability, T/C [9] 7.58% | viability, T/C [10] 6.11% | viability, T/C [11] 8.15% | viability, T/C [12] 7.98% | viability, T/C [14] 10% | viability, T/C [15] 8.64% | viability, T/C [16] 7.04% | viability, T/C [17] 8.84% | viability, T/C [18] 10.1% | viability, T/C [20] 8.67% | viability, T/C [21] 6.76% | viability, T/C [22] 7.25% | viability, T/C [23] 6.69% | viability, T/C [24] 9.71% | viability, T/C [26] 9.08% | viability, T/C [27] 8.56% | viability, T/C [28] 6.91% | viability, T/C [29] 6.53% | viability, T/C [30] 8.28% | viability, T/C [33] 8.85% | viability, T/C [34] 7.09% | viability, T/C [35] 8.15% | viability, T/C [36] 8.56%
< 31.6 nM: IC50 (second compound 0.0316 µM) | IC50 (second compound 0.1 µM) | IC50 (second compound 0.316 µM) | IC50 (second compound 1 µM) | IC50 (second compound 3.16 µM) | IC50 (second compound 10 µM)

CCCS(=O)(=O)Nc1ccc(F)c(C(=O)c2c[nH]c3ncc(-c4ccc(Cl)cc4)cc23)c1F + CN(C)c1ccc(Nc2c3ccc(NC(=O)CCN4CCCC4)cc3nc3cc(NC(=O)CCN4CCCC4)ccc23)cc1
5440 nM: IC50 (second compound 3.16 µM)
6130 nM: IC50 (second compound 0.1 µM)
3720 nM: IC50 (second compound 10 µM)
5410 nM: IC50 (second compound 0.0316 µM)
active: viability, T/C [12] 8.55% | viability, T/C [36] 4.49%
inactive: viability, T/C [1] 108% | viability, T/C [2] 104% | viability, T/C [3] 114% | viability, T/C [4] 110% | viability, T/C [5] 85% | viability, T/C [6] 10% | viability, T/C [7] 103% | viability, T/C [8] 98% | viability, T/C [9] 103% | viability, T/C [10] 123% | viability, T/C [11] 106% | viability, T/C [13] 98.5% | viability, T/C [14] 101% | viability, T/C [15] 108% | viability, T/C [16] 105% | viability, T/C [17] 102% | viability, T/C [18] 11.7% | viability, T/C [19] 88.1% | viability, T/C [20] 94.3% | viability, T/C [21] 104% | viability, T/C [22] 87.9% | viability, T/C [23] 85.1% | viability, T/C [24] 12.6% | viability, T/C [25] 90% | viability, T/C [26] 74.1% | viability, T/C [27] 101% | viability, T/C [28] 89.5% | viability, T/C [29] 82.4% | viability, T/C [30] 13.5% | viability, T/C [31] 68.3% | viability, T/C [32] 70% | viability, T/C [33] 80.3% | viability, T/C [34] 67.2% | viability, T/C [35] 57.9%
5520 nM: IC50 (second compound 1 µM)
6150 nM: IC50 (second compound 0.316 µM)

Cc1[nH]c2ccccc2c1CCNCc1ccc(/C=C/C(=O)NO)cc1 + CN(C)c1ccc(Nc2c3ccc(NC(=O)CCN4CCCC4)cc3nc3cc(NC(=O)CCN4CCCC4)ccc23)cc1
active: viability, T/C [3] 6.62% | viability, T/C [9] 6.22% | viability, T/C [15] 6.88% | viability, T/C [21] 8.83% | viability, T/C [27] 7.17% | viability, T/C [33] 4.66%
48.8 nM: IC50 (second compound 1 µM)
56.3 nM: IC50 (second compound 0.316 µM)
inactive: viability, T/C (second compound 0.0316 µM, first compound 0.000999 µM) 104% | viability, T/C (second compound 0.0316 µM, first compound 0.00316 µM) 102% | viability, T/C (second compound 0.0316 µM, first compound 0.00999 µM) 106% | viability, T/C [1] 83.2% | viability, T/C (second compound 0.0316 µM, first compound 0.0999 µM) 37.1% | viability, T/C (second compound 0.1 µM, first compound 0.000999 µM) 107% | viability, T/C (second compound 0.1 µM, first compound 0.00316 µM) 96.7% | viability, T/C (second compound 0.1 µM, first compound 0.00999 µM) 92.8% | viability, T/C [7] 89.5% | viability, T/C (second compound 0.1 µM, first compound 0.0999 µM) 28.9% | viability, T/C (second compound 0.316 µM, first compound 0.000999 µM) 93.8% | viability, T/C (second compound 0.316 µM, first compound 0.00316 µM) 93.3% | viability, T/C (second compound 0.316 µM, first compound 0.00999 µM) 99.2% | viability, T/C [13] 68.7% | viability, T/C (second compound 0.316 µM, first compound 0.0999 µM) 30.2% | viability, T/C (second compound 1 µM, first compound 0.000999 µM) 96.8% | viability, T/C (second compound 1 µM, first compound 0.00316 µM) 92.5% | viability, T/C (second compound 1 µM, first compound 0.00999 µM) 92.3% | viability, T/C [19] 65.1% | viability, T/C (second compound 1 µM, first compound 0.0999 µM) 24.5% | viability, T/C (second compound 3.16 µM, first compound 0.000999 µM) 90.1% | viability, T/C (second compound 3.16 µM, first compound 0.00316 µM) 86.7% | viability, T/C (second compound 3.16 µM, first compound 0.00999 µM) 82.1% | viability, T/C [25] 70.3% | viability, T/C (second compound 3.16 µM, first compound 0.0999 µM) 26.2% | viability, T/C (second compound 10 µM, first compound 0.000999 µM) 68% | viability, T/C (second compound 10 µM, first compound 0.00316 µM) 70.9% | viability, T/C (second compound 10 µM, first compound 0.00999 µM) 65.6% | viability, T/C [31] 51.8% | viability, T/C (second compound 10 µM, first compound 0.0999 µM) 27.1%
66.8 nM: IC50 (second compound 0.1 µM)
53.2 nM: IC50 (second compound 3.16 µM)
35.4 nM: IC50 (second compound 10 µM)
72.5 nM: IC50 (second compound 0.0316 µM)
